Measured values from the NIST ThermoML archive (doi:10.1016/j.tca.2006.04.016).

Test: xn = mol fraction of the nth substance listed
Conditions: 101 kPa, Liquid, Vibrating tube method

CN(C)CCCN [N,N-dimethyl-1,3-propanediamine] + O
mass density [kg/m3]
Conditions	328.15 K	333.15 K	338.15 K
x2 = 0	–	781.39	776.85
x2 = 0.0403	–	784.47	779.92
x2 = 0.0811	–	787.61	783.06
x2 = 0.1198	–	790.78	786.22
x2 = 0.16	–	794.25	789.69
x2 = 0.1996	–	797.86	793.3
x2 = 0.2498	–	802.78	–
x2 = 0.2998	–	808.09	–
x2 = 0.3499	–	813.78	–
x2 = 0.3997	824.59	820.06	–
x2 = 0.4501	831.54	827.01	–
x2 = 0.4998	839.19	834.65	–
x2 = 0.5501	847.84	843.3	–
x2 = 0.5999	857.39	852.84	–
x2 = 0.6498	868.1	863.55	–
x2 = 0.7	880.31	875.74	–
x2 = 0.7499	893.85	889.3	–
x2 = 0.8	908.82	904.3	–
x2 = 0.84	921.82	917.39	–
x2 = 0.8799	935.48	931.22	–
x2 = 0.9	942.52	938.42	–
x2 = 0.92	949.71	945.84	–
x2 = 0.94	957.12	953.56	–
x2 = 0.9597	964.87	961.68	–
x2 = 0.975	971.65	968.78	–
x2 = 0.99	979.45	976.83	–
